Experimental data published in BindingDB's records for doi:10.1021/jm050184y (National Taiwan University, 2005).

Biological target: Replicase polyprotein 1ab (Severe acute respiratory syndrome coronavirus, UniProt P0C6X7)
Assay: SARS-CoV 3CL Protease Inhibition Assay
Settings: pH 7; 25 °C
Protocol: The effects of compound on enzyme activity were measured by using a fluorogenic peptide cleavage assay. Enhanced fluorescence caused by cleavage of the substrate peptide was monitored at 538 nm with excitation at 355 nm. The Ki measurements were performed at two fixed inhibitor concentrations and various substrate concentrations.

SMILES	IC50 [µM]	Ki [µM]
Cc1cc(C(=O)N[C@H](C(=O)N[C@@H](Cc2ccccc2)C(=O)N[C@H](C(=O)N[C@@H](Cc2ccccc2)C(=O)Nc2ccc([N+](=O)[O-])cc2Cl)C(C)O)C(C)C)no1 (stereo partly drawn) [N-[(5-methylisoxazol-3-yl)carbonyl]-L-valyl-L-phenylalanyl-L-threonyl-N-(2-chloro-4-nitrophenyl)-L-phenylalaninamide]	5	1.61
Cc1cc(C(=O)N[C@H](C(=O)N[C@@H](Cc2ccccc2)C(=O)N[C@@H](Cc2ccccc2)C(=O)Nc2ccc([N+](=O)[O-])cc2Cl)C(C)C)[n-][o+]1 [(2S)-N-[(1S)-1-{[(1S)-1-[(2-chloro-4-nitrophenyl)carbamoyl]-2-phenylethyl]carbamoyl}-2-phenylethyl]-3-methyl-2-[(5-methyl-1,2-oxazol-3-yl)formamido]butanamide]	7	2.9
O=C(Nc1ccc([N+](=O)[O-])cc1Cl)c1cc(Cl)ccc1O [5-chloro-N-(2-chloro-4-nitrophenyl)-2-hydroxybenzamide]	> 50	–
CC(C)C[C@H](NC(=O)[C@@H](NC(=O)OC(C)(C)C)C(C)C)C(=O)N[C@@H](Cc1ccccc1)C(=O)Nc1ccc([N+](=O)[O-])cc1Cl [tert-butyl N-[(1S)-1-{[(1S)-1-{[(1S)-1-[(2-chloro-4-nitrophenyl)carbamoyl]-2-phenylethyl]carbamoyl}-3-methylbutyl]carbamoyl}-2-methylpropyl]carbamate]	> 10	–
O=C(C[C@H](O)C(=O)N[C@@H](Cc1ccccc1)C(=O)Nc1ccc([N+](=O)[O-])cc1Cl)N[C@@H](Cc1ccccc1)C(=O)Nc1ccc([N+](=O)[O-])cc1Cl [(2S)-N,N'-bis[(1S)-1-[(2-chloro-4-nitrophenyl)carbamoyl]-2-phenylethyl]-2-hydroxybutanediamide]	4	3.1
